Biological target: PI3K γ (Homo sapiens, UniProt P48736)
Assay: PI3 kinase phosphorylation assay (Biological Method 1), Ki γ
Type: biochemical
Protocol: The compounds of the invention were synthesized according to the examples provided above. PI3K inhibitory (IC50) values of the compounds were determined according to Biological Method 1.
Assay 1: Homogenous Solution Phase Assay
Compounds to be tested are dissolved in DMSO and directly distributed into 384-well flashplates at 1.25 μL per well. To start the reaction, 20 μL of 6 nM PI3 kinase are added into each well followed by 20 μL of 400 nM ATP containing a trace of radiolabeled ATP and 900 nM 1-alpha-phosphatidylinositol (PI). The plates are briefly centrifuged to remove any air gap. The reaction is performed for 15 minutes and then stopped by the addition of 20 μL of 100 mM EDTA. The stopped reaction is incubated overnight at RT to allow the lipid substrate to bind by hydrophobic interaction to the surface of the flashplate. The liquid in the wells is then washed away, and the labeled substrate is detected with scintillation counting.
Assay 2: One Step Solid Phase Assay
This method is similar to Assay 1 except that the lipid substrate (1-alpha-phosphatidylinositol (PI)) is first dissolved in a coating buffer and incubated on flashplate at room temperature overnight to allow the lipid substrate to bind by hydrophobic interaction to the surface of the flashplate. Unbound substrate is then washed away. On the day of assay, 20 μL of 6 nM PI3 kinase are added into each well followed by 20 μL of 400 nM ATP containing trace of radiolabeled ATP. Compounds are added together with enzyme and ATP to the lipid-coated plates. The plates are briefly centrifuged to remove any air gap. The reaction is performed for two to three hours. The reaction is stopped by addition of 20 μL of 100 mM EDTA or by immediate plate washing. Phosphorylated lipid substrate is detected by scintillation counting.
Assay 3: ATP Depletion Assay
Compounds to be tested are dissolved in DMSO and directly distributed into a black 384-well plate at 1.25 μL per well. To start the reaction, 25 μL of 10 nM PI3 kinase and 5 μg/mL 1-alpha-phosphatidylinositol (PI) are added into each well followed by 25 μL of 2 μM ATP. The reaction is performed until approx 50% of the ATP is depleted, and then stopped by the addition of 25 μL of KinaseGlo solution. The stopped reaction is incubated for 5 minutes and the remaining ATP is then detected via luminescence.

[1] = Table 2, compounds of formula X
[2] = Table 1, compounds of formula X
[3] = Table 3, compounds of formula XI

Sequence of PI3K γ (P48736 whole entry): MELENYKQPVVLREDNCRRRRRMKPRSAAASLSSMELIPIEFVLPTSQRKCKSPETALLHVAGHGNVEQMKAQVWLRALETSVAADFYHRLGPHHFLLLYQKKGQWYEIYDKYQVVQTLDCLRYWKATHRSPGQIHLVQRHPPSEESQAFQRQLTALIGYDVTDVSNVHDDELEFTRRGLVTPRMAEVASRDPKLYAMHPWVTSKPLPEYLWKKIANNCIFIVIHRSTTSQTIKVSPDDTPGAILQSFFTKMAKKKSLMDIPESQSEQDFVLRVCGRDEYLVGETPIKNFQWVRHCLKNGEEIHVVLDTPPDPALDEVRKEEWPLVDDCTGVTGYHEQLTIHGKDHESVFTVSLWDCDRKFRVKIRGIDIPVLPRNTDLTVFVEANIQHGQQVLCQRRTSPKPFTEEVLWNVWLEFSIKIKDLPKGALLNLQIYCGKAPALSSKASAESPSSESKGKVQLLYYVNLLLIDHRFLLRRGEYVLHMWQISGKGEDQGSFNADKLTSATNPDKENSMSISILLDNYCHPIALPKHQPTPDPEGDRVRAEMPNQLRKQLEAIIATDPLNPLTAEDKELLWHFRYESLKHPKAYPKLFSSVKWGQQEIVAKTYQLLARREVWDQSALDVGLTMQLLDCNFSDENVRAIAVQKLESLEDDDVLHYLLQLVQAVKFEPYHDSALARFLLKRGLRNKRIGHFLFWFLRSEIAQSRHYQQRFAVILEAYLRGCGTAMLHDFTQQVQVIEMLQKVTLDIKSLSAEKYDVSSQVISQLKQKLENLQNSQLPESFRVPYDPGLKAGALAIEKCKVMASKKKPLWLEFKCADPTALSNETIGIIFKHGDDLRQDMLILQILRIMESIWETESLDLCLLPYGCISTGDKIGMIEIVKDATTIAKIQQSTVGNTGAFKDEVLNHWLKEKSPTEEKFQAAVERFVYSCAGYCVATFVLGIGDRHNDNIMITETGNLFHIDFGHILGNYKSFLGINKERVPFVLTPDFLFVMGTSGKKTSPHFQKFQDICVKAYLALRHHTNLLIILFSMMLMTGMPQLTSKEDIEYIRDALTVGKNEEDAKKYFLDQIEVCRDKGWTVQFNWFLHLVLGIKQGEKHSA

SMILES | Ki [1] | Ki [2] | further results
COc1cccc(-c2ccc3nc(NC(=O)NCCc4nnn(C(C)C)n4)cn3c2)c1 [Example 1-29, 1-[2-(2-Isopropyl-2H-tetrazol-5-yl)-ethyl]-3-[6-(3-methoxy-phenyl)-imidazo[1,2-a]pyridin-2-yl]-u] | 1.03 µM |  | 
CCn1nnc(CCNC(=O)Nc2cn3cc(-c4cncc(C#N)c4)ncc3n2)n1 [Example 3-5, 1-[6-(5-Cyano-pyridin-3-yl)-imidazo[1,2-a]pyrazin-2-yl]-3-[2-(2-ethyl-2H-tetrazol-5-yl)-ethyl]-urea] |  |  | Ki (Table 4): 0.098 µM
Cn1nnc(CCNC(=O)Nc2cn3cc(-c4cncc(C(F)(F)F)c4)ccc3n2)n1 [drawing 89] |  | 0.012 µM | 
O=C(NCCc1nnn(CCF)n1)Nc1nc2ccc(-c3cncc(C(F)(F)F)c3)cc2s1 [Example 2-8, 1-{2-[2-(2-Fluoro-ethyl)-2H-tetrazol-5-yl]-ethyl}-3-[6-(5-trifluoromethyl-pyridin-3-yl)-benzothiazol-2-yl]urea] |  |  | Ki [3]: 0.016 µM
CCn1nnc(CNC(=O)Nc2cn3cc(-c4cncc(C(F)(F)F)c4)ccc3n2)n1 [Example 1-21, 1-(2-Ethyl-2H-tetrazol-5-ylmethyl)-3-[6-(5-trifluoromethyl-pyridin-3-yl)-imidazo[1,2-a]pyridin-2-yl]urea] | 0.014 µM |  | 
O=C(NCCc1nnn(CCF)n1)Nc1cn2cc(-c3cncc(C(F)(F)F)c3)ccc2n1 [Example 1-35, 1-{2-[2-(2-Fluoro-ethyl)-2H-tetrazol-5-yl]-ethyl}-3-[6-(5-trifluoromethyl-pyridin-3-yl)-imidazo[1,2-a]pyridin-2-yl]-urea] | 0.002 µM |  | 
CCn1nnc(CCNC(=O)Nc2cn3cc(-c4cncc(C(F)(F)F)c4)ccc3n2)n1 [drawing 81] |  | 0.007 µM | 
CCn1nnc(CCNC(=O)Nc2cn3cc(Br)ccc3n2)n1 [Example 1-45, 1-(6-Bromo-imidazo[1,2-a]pyridin-2-yl)-3-[2-(2-ethyl-2H-tetrazol-5-yl)-ethyl]-urea] | 0.911 µM |  | 
CC(C)(C)NC(=O)CCNC(=O)Nc1cn2cc(-c3cncc(-c4ccccc4)c3)ccc2n1 [drawing 43] |  | 0.207 µM | 
O=C(NCCc1nnn(CCF)n1)Nc1cn2cc(-c3cncc(C(F)(F)F)c3)ccc2n1 [drawing 83] |  | 0.002 µM | 
CCn1nnc(CCNC(=O)Nc2cn3cc(-c4cncc5ccccc45)ccc3n2)n1 [drawing 97] |  | 0.158 µM | 
Cn1nnc(CCNC(=O)Nc2cn3cc(-c4cncc(C(F)(F)F)c4)ccc3n2)n1 [Example 1-38, 1-[2-(2-Methyl-2H-tetrazol-5-yl)-ethyl]-3-[6-(5-trifluoromethyl-pyridin-3-yl)-imidazo[1,2-a]pyridin-2-yl]-urea] | 0.012 µM |  | 
COCCOCCOc1cncc(-c2ccc3nc(NC(=O)NCCc4nnn(C(C)C)n4)cn3c2)c1 [drawing 47] |  | 0.268 µM | 
CC(C)(C)NC(=O)CCNC(=O)Nc1cn2cc(-c3cncc(OC4CCOCC4)c3)ccc2n1 [drawing 49] |  | 0.397 µM | 
CCn1nnc(CCNC(=O)Nc2cn3cc(-c4cnn(C)c4)ccc3n2)n1 [drawing 93] |  | 0.456 µM | 
CC(C)n1nnc(CCNC(=O)Nc2cn3cc(-c4cccc(F)c4)ccc3n2)n1 [Example 1-28, 1-[6-(3-Fluoro-phenyl)-imidazo[1,2-a]pyridin-2-yl]-3-[2-(2-isopropyl-2H-tetrazol-5-yl)-ethyl]urea] | 0.836 µM |  | 
CCn1nnc(CCNC(=O)Nc2nc3ccc(-c4cncc(C(F)(F)F)c4)cc3s2)n1 [Example 2-9, 1-[2-(2-Ethyl-2H-tetrazol-5-yl)-ethyl]-3-[6-(5-trifluoromethyl-pyridin-3-yl)-benzothiazol-2-yl]-urea] |  |  | Ki [3]: 0.06 µM
CC(C)n1nnc(CCNC(=O)Nc2cn3cc(-c4cncnc4)ccc3n2)n1 [Example 1-4, 1-[2-(2-Isopropyl-2H-tetrazol-5-yl)-ethyl]-3-(6-pyrimidin-5-yl-imidazo[1,2-a]pyridin-2-yl)-urea] | 0.165 µM |  | 
CCc1nnn(CCNC(=O)Nc2cn3cc(-c4cncc(C#N)c4)ccc3n2)n1 [drawing 65] |  | 0.115 µM | 
CCn1nnc(CCNC(=O)Nc2cn3cc(-c4cccc(C(F)(F)F)c4)ccc3n2)n1 [drawing 31] |  | 0.24 µM | 
CCn1cnc(CCNC(=O)Nc2cn3cc(-c4cncc(C(F)(F)F)c4)ccc3n2)c1 [Example 1-23, 1-[2-(1-Ethyl-1H-imidazol-4-yl)-ethyl]-3-[6-(5-trifluoromethyl-pyridin-3-yl)-imidazo[1,2-a]pyridin-2-yl]-urea] | 0.028 µM |  | 
Cc1cc(NC(=O)CCNC(=O)Nc2cn3cc(Br)ccc3n2)no1 [Example 1-46, 3-[3-(6-Bromo-imidazo[1,2-a]pyridin-2-yl)-ureido]-N-(5-methyl-isoxazo-3-yl)-propionamide] | 4.98 µM |  | 
CC(C)n1nnc(CCNC(=O)Nc2cn3cc(-c4cncc(C#N)c4)ccc3n2)n1 [drawing 19] |  | 0.04 µM | 
